According to patent US7314620B2, “Methods for diagnosis and treatment of PH domain signal transduction disorders” (New York University, priority 1995, dated 2008):

Key:
PLCδ-PH = molecular target: T1, PLCδ-PH (Rattus norvegicus, UniProt P10688); experiment: Equilibrium gel filtration (Hummel and Dreyer) of PH domain binding to lipid vesicles; settings: lipid-containing DMPC vesicles; overestimates of the real KD; read-out: apparent KD for vesicle binding
T1 construct: initiator methionine (N); made in house; host or cells: Escherichia coli (pET11a, T7 system)
T1 sequence (P10688 20-136): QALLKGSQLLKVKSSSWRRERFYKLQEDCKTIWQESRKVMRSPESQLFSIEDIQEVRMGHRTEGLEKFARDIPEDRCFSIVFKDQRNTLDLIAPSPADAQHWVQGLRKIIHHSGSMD
Experimental: (§1) A 150×7.5 mm Superdex 75 column, attached to a Dionex HPLC system, was equilibrated with buffer containing PH domain at around 5 μM (depending upon the experiment). A suspension of vesicles that also contained 5 μM PH domain was then injected. In the absence of interaction between the PH domain and the vesicles, the resulting column profile (detected by absorbance at 280 nm) reflects only the lipid peak. However, if there is significant interaction, a trough is observed at a position corresponding to the elution position of the free PH domain, since the lipids have removed free PH domain from the column buffer. When such a trough was observed, in order to determine a KD for the interaction, a series of higher concentrations of PH domain were injected, all with constant lipid concentration. A plot of trough area against [PH] in the injected sample was linear, becoming positive when excess free protein was present in the injected sample (see FIG. 5B). This line was used to determine the point at which no trough was observed. At this point, [PH]free in the injected sample is equal to [PH] in the column buffer. Since [PH]total as well as [lipid]total in the injected sample are known, KD can be determined, as KD=([PH]free×[lipid]free)/[complex]. [complex]=[PH]total−[PH]free, and [lipid]free=[lipid]total−[complex].
(§2) We also utilized the equilibrium gel-filtration approach described by Hummel, J. P., and Dreyer, W. J., Biochim. Biophys. Acta. 63, 530-532, 1962. In this approach, a size exclusion column is equilibrated with a solution of the ligand (5 μM PH domain in this case), and a solution of macromolecule (a vesicle suspension in this case) that also contains 5 μM ligand is then injected. In the absence of interaction between the ligand and macromolecule, a single peak, corresponding to the macromolecule, is observed. […] If an interaction is observed, its KD can be determined as described in Experimental Procedures. […]

PlecN-PH = molecular target: T2, PlecN-PH (Homo sapiens, UniProt P08567); experiment: as above; settings: PIP2-containing vesicles; overestimate; inhibited by moderately high NaCl; read-out: apparent KD for vesicle binding
T2 construct: residues 1-110 of pleckstrin (PlecN-PH); initiator methionine (N); made in house; host or cells: Escherichia coli (pET11a, T7 system)
T2 sequence (P08567 1-110): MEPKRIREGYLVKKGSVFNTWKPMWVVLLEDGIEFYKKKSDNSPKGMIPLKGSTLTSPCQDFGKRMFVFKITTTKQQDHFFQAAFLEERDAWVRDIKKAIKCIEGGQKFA
Experimental: as §1, §2

whole PLC-δ1 = molecular target: T3, whole PLC-δ1 (Homo sapiens, UniProt P51178); settings: sucrose-loaded PIP2-containing vesicles; Rebecchi et al. 1992; read-out: apparent KD; cited from earlier work
T3 sequence (P51178 1-756): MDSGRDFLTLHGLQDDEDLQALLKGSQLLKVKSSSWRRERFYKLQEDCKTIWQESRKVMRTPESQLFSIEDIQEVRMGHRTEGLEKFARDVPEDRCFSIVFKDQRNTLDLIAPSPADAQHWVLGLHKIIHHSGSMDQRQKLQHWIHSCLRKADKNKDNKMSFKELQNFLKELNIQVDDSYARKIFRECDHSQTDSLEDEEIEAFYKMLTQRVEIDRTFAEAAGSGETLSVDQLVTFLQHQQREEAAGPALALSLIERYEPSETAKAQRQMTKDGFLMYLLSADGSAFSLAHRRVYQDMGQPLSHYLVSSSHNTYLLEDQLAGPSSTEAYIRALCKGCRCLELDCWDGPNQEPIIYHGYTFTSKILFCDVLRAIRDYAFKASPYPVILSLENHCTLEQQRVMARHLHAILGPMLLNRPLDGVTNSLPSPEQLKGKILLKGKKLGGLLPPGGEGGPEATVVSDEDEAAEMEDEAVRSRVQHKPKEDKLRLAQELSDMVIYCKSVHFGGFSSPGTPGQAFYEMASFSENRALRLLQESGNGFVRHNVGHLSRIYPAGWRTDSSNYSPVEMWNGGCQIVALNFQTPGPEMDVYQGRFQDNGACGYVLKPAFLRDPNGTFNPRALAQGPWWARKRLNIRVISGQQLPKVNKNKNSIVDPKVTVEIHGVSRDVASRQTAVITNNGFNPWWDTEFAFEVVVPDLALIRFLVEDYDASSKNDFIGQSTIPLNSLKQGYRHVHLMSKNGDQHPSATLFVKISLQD

[1] = molecular target: T4, N-terminal pleckstrin PH domain (Homo sapiens, UniProt P08567); settings: PIP2 in detergent; Harlan et al. 1994; cited from earlier work
T4 sequence (P08567 4-101 limits assumed): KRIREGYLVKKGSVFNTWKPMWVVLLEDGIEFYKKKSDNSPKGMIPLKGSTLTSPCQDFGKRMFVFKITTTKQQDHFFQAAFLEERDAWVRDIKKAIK

Phosphatidylinositol-(4,5)-bisphosphate [PIP2]
Kd (PLCδ-PH): 13 µM
Kd (PlecN-PH): ~90 µM
Kd (whole PLC-δ1): ~2.5 µM
Kd [1]: ~30 µM
